Measured values: ChEMBL document CHEMBL3045600, “Synthesis and Fungicidal Activities of Phenoxyphenyl Alkoxyiminoacetamide Derivatives” (J Pestic Sci, 1998)

Assays:
Format in all cases: functional
[1] = tested on: Pseudoperonospora cubensis; assay: Fungicidal activity against Pseudoperonospora cubensis assessed as cucumber downy mildew disease control at 7.8 ppm foliar application 24 hr before inoculation on upper surface of leaf by preventive manner
Thanatephorus cucumeris [2] = assay: Fungicidal activity against Thanatephorus cucumeris assessed as rice sheath blight disease control at 125 ppm foliar application for 24 hr before inoculation at 26 +- 2 measured after 5 days by preventive manner
Podosphaera fuliginea [3] = assay: Fungicidal activity against Podosphaera fuliginea assessed as cucumber powdery mildew control under greenhouse at 2 ppm foliar application 24 hr before inoculation on upper surface of leaf at 23 +/- 2 degC by preventive manner
Botrytis cinerea [4] = assay: Fungicidal activity against Botryotinia fuckeliana assessed as cucumber gray mold disease control at 125 ppm foliar application 24 hr before inoculation at 22 +/- 2 degC measured after 3 days by preventive manner
Botrytis cinerea [5] = assay: Fungicidal activity against Botryotinia fuckeliana assessed as cucumber gray mold disease control at 31.3 ppm foliar application 24 hr before inoculation at 22 +/- 2 degC measured after 3 days by preventive manner
Podosphaera fuliginea [6] = assay: Fungicidal activity against Podosphaera fuliginea assessed as cucumber powdery mildew control under greenhouse at 125 ppm foliar application 24 hr before inoculation on upper surface of leaf at 23 +/- 2 degC by preventive manner
[7] = tested on: Pseudoperonospora cubensis; assay: Fungicidal activity against Pseudoperonospora cubensis assessed as cucumber downy mildew disease control at 125 ppm foliar application 24 hr before inoculation on upper surface of leaf by preventive manner
Botrytis cinerea [8] = assay: Fungicidal activity against Botryotinia fuckeliana assessed as cucumber gray mold disease control at 7.8 ppm foliar application 24 hr before inoculation at 22 +/- 2 degC measured after 3 days by preventive manner
Botrytis cinerea [9] = assay: Fungicidal activity against Botryotinia fuckeliana assessed as cucumber gray mold disease control at 2 ppm foliar application 24 hr before inoculation at 22 +/- 2 degC measured after 3 days by preventive manner
[10] = tested on: Pseudoperonospora cubensis; assay: Fungicidal activity against Pseudoperonospora cubensis assessed as cucumber downy mildew disease control at 2 ppm foliar application 24 hr before inoculation on upper surface of leaf by preventive manner
Thanatephorus cucumeris [11] = assay: Fungicidal activity against Thanatephorus cucumeris assessed as rice sheath blight disease control at 2 ppm foliar application for 24 hr before inoculation at 26 +- 2 measured after 5 days by preventive manner
Thanatephorus cucumeris [12] = assay: Fungicidal activity against Thanatephorus cucumeris assessed as rice sheath blight disease control at 7.8 ppm foliar application for 24 hr before inoculation at 26 +- 2 measured after 5 days by preventive manner
Podosphaera fuliginea [13] = assay: Fungicidal activity against Podosphaera fuliginea assessed as cucumber powdery mildew control under greenhouse at 7.8 ppm foliar application 24 hr before inoculation on upper surface of leaf at 23 +/- 2 degC by preventive manner
Podosphaera fuliginea [14] = assay: Fungicidal activity against Podosphaera fuliginea assessed as cucumber powdery mildew control under greenhouse at 31.3 ppm foliar application 24 hr before inoculation on upper surface of leaf at 23 +/- 2 degC by preventive manner
[15] = tested on: Pseudoperonospora cubensis; assay: Fungicidal activity against Pseudoperonospora cubensis assessed as cucumber downy mildew disease control at 31.3 ppm foliar application 24 hr before inoculation on upper surface of leaf by preventive manner
Thanatephorus cucumeris [16] = assay: Fungicidal activity against Thanatephorus cucumeris assessed as rice sheath blight disease control at 31.3 ppm foliar application for 24 hr before inoculation at 26 +- 2 measured after 5 days by preventive manner
Pyricularia oryzae [17] = assay: Fungicidal activity against Magnaporthe oryzae assessed as rice blast disease control at 2.5 ppm submerged application measured after 7 days
Pyricularia oryzae [18] = assay: Fungicidal activity against Magnaporthe oryzae assessed as rice blast disease control at 0.16 ppm submerged application measured after 7 days
[19] = tested on: Pseudoperonospora cubensis; assay: Fungicidal activity against Pseudoperonospora cubensis assessed as cucumber downy mildew disease control at 31.3 ppm foliar application 24 hr after inoculation on upper surface of leaf by curative manner
Podosphaera fuliginea [20] = assay: Fungicidal activity against Podosphaera fuliginea assessed as cucumber powdery mildew control under greenhouse at 2 ppm foliar application 24 hr after inoculation on upper surface of leaf at 23 +/- 2 degC by curative manner
Botrytis cinerea [21] = assay: Fungicidal activity against Botryotinia fuckeliana assessed as cucumber gray mold disease control at 2 ppm foliar application 24 hr after inoculation at 22 +/- 2 degC measured after 3 days by curative manner
Botrytis cinerea [22] = assay: Fungicidal activity against Botryotinia fuckeliana assessed as cucumber gray mold disease control at 31.3 ppm foliar application 24 hr after inoculation at 22 +/- 2 degC measured after 3 days by curative manner
[23] = tested on: Pseudoperonospora cubensis; assay: Fungicidal activity against Pseudoperonospora cubensis assessed as cucumber downy mildew disease control at 2 ppm foliar application 24 hr after inoculation on upper surface of leaf by curative manner
Podosphaera fuliginea [24] = assay: Fungicidal activity against Podosphaera fuliginea assessed as cucumber powdery mildew control under greenhouse at 31.3 ppm foliar application 24 hr after inoculation on upper surface of leaf at 23 +/- 2 degC by curative manner
Pyricularia oryzae [25] = assay: Fungicidal activity against Magnaporthe oryzae assessed as rice blast disease control at 0.63 ppm submerged application measured after 7 days
[26] = tested on: Pseudoperonospora cubensis; assay: Fungicidal activity against Pseudoperonospora cubensis assessed as cucumber downy mildew disease control at 125 ppm foliar application 24 hr after inoculation on upper surface of leaf by curative manner
Podosphaera fuliginea [27] = assay: Fungicidal activity against Podosphaera fuliginea assessed as cucumber powdery mildew control under greenhouse at 7.8 ppm foliar application 24 hr after inoculation on upper surface of leaf at 23 +/- 2 degC by curative manner
Botrytis cinerea [28] = assay: Fungicidal activity against Botryotinia fuckeliana assessed as cucumber gray mold disease control at 7.8 ppm foliar application 24 hr after inoculation at 22 +/- 2 degC measured after 3 days by curative manner
Pyricularia oryzae [29] = assay: Fungicidal activity against Magnaporthe oryzae assessed as rice blast disease control at 10 ppm submerged application measured after 7 days
Botrytis cinerea [30] = assay: Fungicidal activity against Botryotinia fuckeliana assessed as cucumber gray mold disease control at 125 ppm foliar application 24 hr after inoculation at 22 +/- 2 degC measured after 3 days by curative manner
[31] = tested on: Pseudoperonospora cubensis; assay: Fungicidal activity against Pseudoperonospora cubensis assessed as cucumber downy mildew disease control at 7.8 ppm foliar application 24 hr after inoculation on upper surface of leaf by curative manner
Podosphaera fuliginea [32] = assay: Fungicidal activity against Podosphaera fuliginea assessed as cucumber powdery mildew control under greenhouse at 125 ppm foliar application 24 hr after inoculation on upper surface of leaf at 23 +/- 2 degC by curative manner

SMILES	Activity [1] [%]	Activity (Thanatephorus cucumeris [2]) [%]	Activity (Podosphaera fuliginea [3]) [%]	Activity (Podosphaera fuliginea [6]) [%]	Activity [7] [%]	Activity [10] [%]	Activity (Thanatephorus cucumeris [11]) [%]	Activity (Thanatephorus cucumeris [12]) [%]	Activity (Podosphaera fuliginea [13]) [%]	Activity (Podosphaera fuliginea [14]) [%]	Activity [15] [%]	Activity (Thanatephorus cucumeris [16]) [%]	Activity (Pyricularia oryzae [17]) [%]	Activity (Pyricularia oryzae [18]) [%]	Activity [19] [%]	Activity (Podosphaera fuliginea [20]) [%]	Activity (Botrytis cinerea [21]) [%]	Activity (Botrytis cinerea [22]) [%]	Activity [23] [%]	Activity (Podosphaera fuliginea [24]) [%]	also measured
CNC(=O)/C(=N/OC)c1cc([Si](C)(C)C)ccc1Oc1ccccc1	<70	<70	<70	<70	<70	<70	<70	<70	<70	<70	<70	<70	–	–	–	–	–	–	–	–	Activity (Botrytis cinerea [4]): <70%; Activity (Botrytis cinerea [5]): <70%; Activity (Botrytis cinerea [8]): <70%; Activity (Botrytis cinerea [9]): <70%
C#CCOc1cccc(Oc2ccccc2/C(=N\OC)C(=O)NC)c1	70	70	70	70	70	70	70	70	70	70	70	70	50	50	<50	<50	50	50	<50	<50	Activity (Pyricularia oryzae [25]): 50%; Activity [26]: <50%; Activity (Podosphaera fuliginea [27]): <50%; Activity (Botrytis cinerea [28]): 50%; Activity (Pyricularia oryzae [29]): 50%; Activity (Botrytis cinerea [30]): 50%; Activity [31]: <50%; Activity (Podosphaera fuliginea [32]): <50%
CNC(=O)/C(=N/OC)c1ccccc1Oc1cccc(OC)c1	70	70	70	70	70	70	70	70	70	70	70	70	50	50	<50	50	50	50	<50	50	Activity (Pyricularia oryzae [25]): 50%; Activity [26]: <50%; Activity (Podosphaera fuliginea [27]): 50%; Activity (Botrytis cinerea [28]): 50%; Activity (Pyricularia oryzae [29]): 50%; Activity (Botrytis cinerea [30]): 50%; Activity [31]: <50%; Activity (Podosphaera fuliginea [32]): 50%
CNC(=O)/C(=N/OC)c1ccccc1Oc1ccc(I)cc1	70	70	70	70	70	70	70	70	70	70	70	70	50	50	50	50	50	50	50	50	Activity (Pyricularia oryzae [25]): 50%; Activity [26]: 50%; Activity (Podosphaera fuliginea [27]): 50%; Activity (Botrytis cinerea [28]): 50%; Activity (Pyricularia oryzae [29]): 50%; Activity (Botrytis cinerea [30]): 50%; Activity [31]: 50%; Activity (Podosphaera fuliginea [32]): 50%
CNC(=O)/C(=N/OC)c1ccccc1Oc1cccc(C)c1	70	70	70	70	70	70	70	70	70	70	70	70	50	50	50	50	50	50	50	50	Activity (Pyricularia oryzae [25]): 50%; Activity [26]: 50%; Activity (Podosphaera fuliginea [27]): 50%; Activity (Botrytis cinerea [28]): 50%; Activity (Pyricularia oryzae [29]): 50%; Activity (Botrytis cinerea [30]): 50%; Activity [31]: 50%; Activity (Podosphaera fuliginea [32]): 50%
CNC(=O)/C(=N/OC)c1ccccc1Oc1cccc(Oc2ccccc2)c1	70	70	70	70	70	70	70	70	70	70	70	70	50	50	50	50	50	50	50	50	Activity (Pyricularia oryzae [25]): 50%; Activity [26]: 50%; Activity (Podosphaera fuliginea [27]): 50%; Activity (Botrytis cinerea [28]): 50%; Activity (Pyricularia oryzae [29]): 50%; Activity (Botrytis cinerea [30]): 50%; Activity [31]: 50%; Activity (Podosphaera fuliginea [32]): 50%
C=CCOc1cccc(Oc2ccccc2/C(=N\OC)C(=O)NC)c1	70	70	70	70	70	70	70	70	70	70	70	70	50	50	50	50	50	50	50	50	Activity (Pyricularia oryzae [25]): 50%; Activity [26]: 50%; Activity (Podosphaera fuliginea [27]): 50%; Activity (Botrytis cinerea [28]): 50%; Activity (Pyricularia oryzae [29]): 50%; Activity (Botrytis cinerea [30]): 50%; Activity [31]: 50%; Activity (Podosphaera fuliginea [32]): 50%
CNC(=O)/C(=N/OC)c1ccccc1Oc1ccc(Cl)c(Cl)c1	70	70	70	70	70	70	70	70	70	70	70	70	50	50	50	50	50	50	50	50	Activity (Pyricularia oryzae [25]): 50%; Activity [26]: 50%; Activity (Podosphaera fuliginea [27]): 50%; Activity (Botrytis cinerea [28]): 50%; Activity (Pyricularia oryzae [29]): 50%; Activity (Botrytis cinerea [30]): 50%; Activity [31]: 50%; Activity (Podosphaera fuliginea [32]): 50%
